Experimental data published in patent US20200129531A1, “USE OF WITHANIA SOMNIFERA EXTRACT TO PROTECT AGAINST AIR POLLUTION RELATED DISEASES” (DSM IP Assets B.V., priority 2017, published 2020).

Assays:
MCP-1 = MCP-1 secretion of A549 cells treated with Diesel Particulate Matter; format: cell-based, human; settings: for effect on PM-induced MCP-1 secretion (in words): A549; for MCP-1 / MCP-1 % of PM + DMSO: Table 9, A549, 24 h
Text: The human bronchial epithelial cell line BEAS-2B was from ATCC (American Type Culture Collection, Manassas, Va.) and cultured in Bronchial Epithelial cell Growth Medium (BEGM, Lonza, Wakersville, Md.) in CellBIND® surface plastic flasks (Corning Inc., Corning, N.Y.). The adenocarcinomic human alveolar basal epithelial A549 cell line was obtained from ATCC and cultured in Kaighn's Modification of Ham's F-12 Medium (F-12K medium) (Life Technologies, USA), supplemented with 10% FBS (Sigma, Saint-Louis, Mo.). These cells were cultured at 37° C. in a humidified atmosphere containing 5% CO2. BEAS-2B cells were seeded in 12-well CellBIND® surface culture plates (Corning Inc.) at 3 to 4×10^5 cells per well. A549 cells were seeded in 12-well plates at 2×10^5 cells per well. […] This dilution was twofold further diluted for the assay. After 24 h, cells were treated with the diluted Diesel Particulate Matter at 100 μg/ml and in the presence of different concentrations of Withania somnifera extracts, other plant extracts, fractions and compounds as indicated. The final DSMO concentrations were 0.175%. Untreated cells or cells treated with 0.175% DMSO were used as controls. After 24 h, cell supernatants were collected.

Nrf2 = test: Luciferase reporter assay using H411E-ARE8L cells (Nrf2 activation)
Description: Luciferase Reporter Assay Using H411E-ARE8L Cells:
The medium for H411E-ARE8L cells was Dulbecco's Modified Eagle Medium (DMEM) high glucose containing heat inactivated 10% fetal bovine Serum (FBS). The media was exchanged every two to three-days. The DMEM assay medium used charcoal treated FBS (DMEMct). The transactivation assay was performed in 96 well plates. The plates were seeded with approximately 40′000 cells per well in 100 μl DMEMct and incubated over night at 37° C. Then the test compounds were diluted in DMEDct and given to the cells as described below. The cells were incubated for at least further 16 h at 37° C. and 5% CO2. Cells were equilibrated to room temperature. Lysis of the cells was done by adding 100 μL lysis solution, Steady-Glo© luciferase buffer according to the manufacturer (Promega) containing 0.5 mM DTT per well and incubated for 10 min at room temperature with gentle shaking. The luminescence was measured within 2 hours after incubation on a luminometer (Mithras, Berthold Technologies).
The negative control were cells in 0.5% DMSO.
All extracts, fractions and pure compounds were tested for concentrations that induce toxicity. Non-toxic concentrations were then selected for treating cells as describes in the methods section.

IL-6 [1] = test: IL-6 secretion of BEAS-2B cells treated with Diesel Particulate Matter; format: cell-based, human; settings: for IL-6 / IL-6 % of PM + DMSO: 24 h
Text: (§1) The human bronchial epithelial cell line BEAS-2B was from ATCC (American Type Culture Collection, Manassas, Va.) and cultured in Bronchial Epithelial cell Growth Medium (BEGM, Lonza, Wakersville, Md.) in CellBIND® surface plastic flasks (Corning Inc., Corning, N.Y.). The adenocarcinomic human alveolar basal epithelial A549 cell line was obtained from ATCC and cultured in Kaighn's Modification of Ham's F-12 Medium (F-12K medium) (Life Technologies, USA), supplemented with 10% FBS (Sigma, Saint-Louis, Mo.). These cells were cultured at 37° C. in a humidified atmosphere containing 5% CO2.
(§2) BEAS-2B cells were seeded in 12-well CellBIND® surface culture plates (Corning Inc.) at 3 to 4×10^5 cells per well. A549 cells were seeded in 12-well plates at 2×10^5 cells per well.
(§3) Diesel Particulate Matter (Standard Reference Material SRM 1650b, National Institute of Standards & Technology, NIST, Gaithersburg, Md.) at 80 mg/ml DMSO (100%) were sonicated for 5 min and thereafter diluted 400 fold in medium. This dilution was twofold further diluted for the assay.
(§4) After 24 h, cells were treated with the diluted Diesel Particulate Matter at 100 μg/ml and in the presence of different concentrations of Withania somnifera extracts, other plant extracts, fractions and compounds as indicated. The final DSMO concentrations were 0.175%.
(§5) Untreated cells or cells treated with 0.175% DMSO were used as controls. After 24 h, cell supernatants were collected.
(§6) The concentrations of IL-6 and IL-8 in the supernatants were determined by Luminex kits (BIO-RAD Laboratories, Hercules, Calif.) and used in the LiquiChip Workstation IS 200 (Qiagen, Hilden, Germany). The data were evaluated with the LiquiChip Analyser software (Qiagen).

BEAS-2B cells = test: Toxicity / cell survival of BEAS-2B cells; format: cell-based, human; settings: at concentrations higher than 0.3 μg/ml
Description: (§7) Cell survival assays of the BEAS-2B and A549 cells were performed with AlamarBlue® Cell Viability Reagent (ThermoFisher Scientific) according to the protocol of the manufacturer. Non-toxic concentrations of the extracts, fractions and single compounds were selected for the assays.

PGE2 = PGE2 secretion of BEAS-2B cells treated with Diesel Particulate Matter; format: cell-based, human; settings: for PGE2 / PGE2 % of PM + DMSO: Table 10, BEAS-2B, 24 h
Text: as §1, §2, §3, §4, §5
Secreted PGE2 was determined by Enzyme Immuno Assay (EIA) (Cayman Chemicals, Ann Harbor, […].).

IL-6 [2] = test: IL-6 secretion of A549 cells treated with Diesel Particulate Matter; format: cell-based, human; settings: for IL-6 / IL-6 % of PM + DMSO: Table 5, A549, 24 h
Text: as §1, §2, §3, §4, §5, §6

IL-8 = IL-8 secretion of A549 cells treated with Diesel Particulate Matter; format: cell-based, human; settings: for IL-8 / IL-8 % of PM + DMSO: Table 7, A549, 24 h
Text: as §1, §2, §3, §4, §5, §6

A549 cells = test: Toxicity / cell survival of A549 cells; format: cell-based, human; settings: concentrations higher than 0.31 μg/ml
Description: as §7

HMOX = test: Endogenous Nrf2 activation assay using BEAS-2B cells: HMOX mRNA expression; format: cell-based, human; settings: 0.1% DMSO set to 1
Description: (§8) The human bronchial epithelial cell line BEAS-2B was from ATCC (American Type Culture Collection, Manassas, Va.) and cultured in Bronchial Epithelial cell Growth Medium (BEGM, Lonza, Wakersville, Md.) in CellIBIND® surface plastic flasks (Corning Inc., Corning, N.Y.). BEAS-2B cells were seeded in 6-well CellIBIND® surface culture plates (Corning Inc.) at 1×10^6 cells per well and incubated at 37° C. with 5% CO2 for 24 hours.
(§9) A 100 mM R-Sulforaphane stock solution was prepared in DMSO (ABCAM, Cat. No. ab141971, Lot GR303041-2). The R-Sulforaphane stock was diluted in DMSO to obtain the desired final concentrations. Withania somnifera extract (NIG-018911) stock solution was prepared in DMSO.
(§10) After 24 h, cells were treated with different concentrations of Withania somnifera extract (5 μg/ml, 10 μg/ml, 25 μg/ml), R-Sulforaphane (2 μM, 5 μM, 10 μM) or DMSO (0.1%) and incubated at 37° C. with 5% CO2 for 4 hrs or 24 hrs. Each treatment was done in triplicate.
(§11) RNA extraction, cDNA synthesis and TaqMan based real-time PCR: After 4 hrs and 24 hrs cells were harvested in RLT buffer, RNA isolation was done using the RNeasy Mini Kit from Qiagen (Cat. No. 74106). cDNA was prepared with 2500 ng total RNA using SuperScript™ First-Strand Synthesis System for RT-PCR (Invitrogen, Cat. No. 11904-018)
(§12) In a 20 μL PCR reaction, a total input of […] of cDNA was amplified in the ABI 7900 HT real-time PCR System (Applied Biosystems) using the TaqMan® Fast Advanced Master Mix (LifeTechnologies Cat. No. 4444557), 50 nM primers, and 100 nM probe (VIC-TAMRA-labeled) for the 18S rRNA internal control
(§13) and 300 nM primers and 100 nM probe (FAM-TAMRA-labeled) for the gene of interest human
(§14) The thermal cycling profile consisted of 2 min at 50° C. for Uracil-N-glycosylase activation, 95° C. for 20 seconds for polymerase activation followed by 40 cycles 95° C. for 1 second and primer annealing at 60° C. for 20 seconds.
(§15) Relative gene expression was performed by subtracting threshold cycles (CT) for ribosomal RNA from the CT of the targeted gene (ΔCT). Relative mRNA levels were then calculated as 2^−ΔΔCT, where ΔΔCT refers to the ΔCT of […].

NQO1 = test: Endogenous Nrf2 activation assay using BEAS-2B cells: NQO1 mRNA expression; format: cell-based, human; settings: 0.1% DMSO set to 1
Description: as §8, §9, §10, §11, §12, §13, §14, §15

[3] = Table 3, 0.3125 μg/ml + PM 100 μg/ml
[4] = Table 3, 5 μg/ml + PM 100 μg/ml

In the case of `CC1=C(CO)C(=O)O[C@@H]([C@@H](C)[C@H]2CC[C@H]3[C@@H]4C[C@H]5O[C@]56[C@@H](O)C=CC(=O)[C@]6(C)[C@H]4CC[C@]23C)C1` [Withaferin A, withaferin A], the “effect on PM-induced MCP-1 secretion (in words)” value (MCP-1) is reported as “significant decrease”, the MCP-1 (MCP-1; 0.3125 μg/ml + PM 100 μg/ml) is reported as 632 pg/mL and the “MCP-1 % of PM + DMSO” value (MCP-1; 0.3125 μg/ml + PM 100 μg/ml) is reported as 66%. For the same molecule, the “Nrf-2 activity, Average” value (Nrf2; Conc. final 0.28 μg/ml) was 32053 relative units of luciferase fluorescence, the “effect on PM-induced IL-6 secretion (in words)” value (IL-6 [1]; 0.3 μg/ml) was “lowered” and the IL-6 (IL-6 [1]; [3]) was 19.4 pg/mL. The “IL-6 % of PM + DMSO” value (IL-6 [1]; [3]) was 77%, the “toxicity to BEAS-2B cells” value (BEAS-2B cells) was “toxic” and the PGE2 (PGE2; 0.3125 μg/ml + PM 100 μg/ml) was 33.2 pg/mL. For the same molecule, the “PGE2 % of PM + DMSO” value (PGE2; 0.3125 μg/ml + PM 100 μg/ml) was 87%, the “effect on PM-induced IL-6 secretion (in words)” value (IL-6 [2]; A549) was “decrease” and the IL-6 (IL-6 [2]; 0.3125 μg/ml + PM 100 μg/ml) was 3.5 pg/mL. For the same molecule, the “IL-6 % of PM + DMSO” value (IL-6 [2]; 0.3125 μg/ml + PM 100 μg/ml) was 29%, the “inhibition of IL-8 secretion (in words)” value (IL-8; A549, PM-induced, 0.31 μg/ml) was “highest inhibition of the pure compounds” and the IL-8 (IL-8; 0.3125 μg/ml + PM 100 μg/ml) was 106.7 pg/mL. For the same molecule, the “IL-8 % of PM + DMSO” value (IL-8; 0.3125 μg/ml + PM 100 μg/ml) was 39% and the “toxicity to A549 cells” value (A549 cells) was “toxic”.

For `CO[C@H]1CC(=O)[C@]2(C)[C@H]3CC[C@]4(C)[C@@H]([C@H](C)[C@H]5CC(C)=C(CO)C(=O)O5)CC[C@H]4[C@@H]3C[C@H]3O[C@]32[C@H]1O` [Quresimine A, quresimine A], the “effect on PM-induced MCP-1 secretion (in words)” value (MCP-1) was “low, but non-significant decrease”, the MCP-1 (MCP-1; 5 μg/ml + PM 100 μg/ml) was 796.7 pg/mL and the “MCP-1 % of PM + DMSO” value (MCP-1; 5 μg/ml + PM 100 μg/ml) was 92%. For the same molecule, the IL-6 (IL-6 [1]; [4]) was 23.5 pg/mL, the “IL-6 % of PM + DMSO” value (IL-6 [1]; [4]) was 94% and the “effect on PGE2 secretion compared to PM with DMSO (in words)” value (PGE2; PM-treated BEAS-2B) was “borderline”. For the same molecule, the PGE2 (PGE2; 5 μg/ml + PM 100 μg/ml) was 33.2 pg/mL, the “PGE2 % of PM + DMSO” value (PGE2; 5 μg/ml + PM 100 μg/ml) was 87% and the “effect on PM-induced IL-6 secretion (in words)” value (IL-6 [2]; A549) was “decrease”. The IL-6 (IL-6 [2]; 5 μg/ml + PM 100 μg/ml) was 9.5 pg/mL, the “IL-6 % of PM + DMSO” value (IL-6 [2]; 5 μg/ml + PM 100 μg/ml) was 75% and the “effect on IL-8 secretion (in words)” value (IL-8; A549, PM-induced) was “significant inhibition”. For the same molecule, the IL-8 (IL-8; 5 μg/ml + PM 100 μg/ml) was 242 pg/mL and the “IL-8 % of PM + DMSO” value (IL-8; 5 μg/ml + PM 100 μg/ml) was 80%.

`C[S@@+]([O-])CCCCN=C=S` [R-Sulforaphane, R-sulforaphane] was tested, and the “effect on PM-induced MCP-1 secretion (in words)” value (MCP-1) was “clear inhibition”, the “Relative mRNA expression level at 4 h (HMOX)” value (HMOX; 2 μM) was 9.48 and the “Relative mRNA expression level at 24 h (HMOX)” value (HMOX; 2 μM) was 2.63. For the same molecule, the “Relative mRNA expression level at 4 h (HMOX)” value (HMOX; 5 μM) was 22.44, the “Relative mRNA expression level at 24 h (HMOX)” value (HMOX; 5 μM) was 5.23 and the “Relative mRNA expression level at 4 h (HMOX)” value (HMOX; 10 μM) was 27.43. For the same molecule, the “Relative mRNA expression level at 24 h (HMOX)” value (HMOX; 10 μM) was 7.12, the “Nrf-2 activity, Average” value (Nrf2; Conc. final 4.55 μg/ml) was 29384 relative units of luciferase fluorescence and the “Nrf-2 activity, Normalized data” value (Nrf2; Conc. final 4.55 μg/ml, R-sulforaphane set to 1.0, DMSO 0) was 1.0000. The “effect on PM-induced IL-6 secretion (in words)” value (IL-6 [1]; concentration not given) was “significantly reduced”, the “reduction of PM-induced IL-6 secretion” value (IL-6 [2]; A549, concentration not given) was “about twofold” and the “reduction of PM-induced cytokine secretion (IL-8 paragraph)” value (IL-8; A549, concentration not given) was “twofold”. For the same molecule, the “Relative mRNA expression level at 4 h (NQO1)” value (NQO1; 2 μM) was 1.60, the “Relative mRNA expression level at 24 h (NQO1)” value (NQO1; 2 μM) was 4.66 and the “Relative mRNA expression level at 4 h (NQO1)” value (NQO1; 5 μM) was 2.26. For the same molecule, the “Relative mRNA expression level at 24 h (NQO1)” value (NQO1; 5 μM) was 7.62, the “Relative mRNA expression level at 4 h (NQO1)” value (NQO1; 10 μM) was 1.78 and the “Relative mRNA expression level at 24 h (NQO1)” value (NQO1; 10 μM) was 8.77.
